In US20220144847A1, “HETEROCYCLIC COMPOUND, PHARMACEUTICAL COMPOSITION COMPRISING SAME, PREPARATION METHOD THEREFOR, AND USE THEREOF” (Sichuan Kelun-Biotech Biopharmaceutical Co., Ltd., priority 2019, published 2022):
Where two headings read alike, the source gives them in different places.

Experiments:
[1] = test system: human medullary thyroid carcinoma TT cells; test: Efficacy test in mice, subcutaneous xenograft tumor of TT cells; type: in vivo, Balb/c-nu mouse; details: 5 mg/kg, PO, BID; TT nude mouse xenograft
Experimental: Experimental purpose: To evaluate the in vivo efficacy of Compound 17 and BLU-667 in a Balb/c-nu mouse model with a subcutaneous xenograft tumor of human medullary thyroid carcinoma TT cells.
Drug preparation: Compound 17 was dissolved in 0.1 M aqueous solution of H3PO4, and BLU-667 was dissolved in 0.1 M aqueous solution of HOAc, to prepare clear solutions (pH: about 4.0). An aqueous solution of H3PO4 at a pH of about 4.0 was used for the solvent control group. The mode of administration was PO, BID.
Tumor measurement: The tumor diameter was measured with a vernier caliper twice a week. The computing formula of the tumor volume is: V=0.5×a×b^2, where a represents a long diameter of the tumor, and b represents a short diameter of the tumor. Evaluation of tumor growth inhibition rate (TGI (%)) for tumor inhibition efficacy of the compounds: TGI (%)=[(1-(mean tumor volume of a treatment group at the end of drug administration-mean tumor volume of the treatment group at the commencement of drug administration))/(mean tumor volume of a solvent control group at the end of treatment-mean tumor volume of the solvent control group at the commencement of treatment)]×100%.
Statistical analysis: Prism Graphpad5.0 software was used for statistical analysis based on the relative tumor volume at the end of the experiment. The comparison between multiple groups was analyzed by two-way ANOVA, and p<0.05 was considered as a significant difference.
Experimental results: In the TT nude mouse xenograft model of human medullary thyroid carcinoma, Compound 17 has a significant […] anti-tumor effect at a dose of 5 mg/kg. […] Relative tumor growth rate T/C (%)=TRTV/CRTV×100%, where TRTV is the mean relative tumor volume of the test compound group, CRTV is the relative tumor volume of the solvent control group; and the relative tumor volume RTV=Vt/V0, where V0 is the mean tumor volume at the commencement of the administration, and Vt is the mean tumor volume measured on day t after the administration.

VEGFR2 = VEGFR2 (Homo sapiens, UniProt P35968); test: VEGFR2 inhibition experiment (HTRF KinEASE-TK kit); type: biochemical; details: read-out: IC50 for inhibiting VEGFR2
Sequence of VEGFR2 (P35968 20-1356, species assumed): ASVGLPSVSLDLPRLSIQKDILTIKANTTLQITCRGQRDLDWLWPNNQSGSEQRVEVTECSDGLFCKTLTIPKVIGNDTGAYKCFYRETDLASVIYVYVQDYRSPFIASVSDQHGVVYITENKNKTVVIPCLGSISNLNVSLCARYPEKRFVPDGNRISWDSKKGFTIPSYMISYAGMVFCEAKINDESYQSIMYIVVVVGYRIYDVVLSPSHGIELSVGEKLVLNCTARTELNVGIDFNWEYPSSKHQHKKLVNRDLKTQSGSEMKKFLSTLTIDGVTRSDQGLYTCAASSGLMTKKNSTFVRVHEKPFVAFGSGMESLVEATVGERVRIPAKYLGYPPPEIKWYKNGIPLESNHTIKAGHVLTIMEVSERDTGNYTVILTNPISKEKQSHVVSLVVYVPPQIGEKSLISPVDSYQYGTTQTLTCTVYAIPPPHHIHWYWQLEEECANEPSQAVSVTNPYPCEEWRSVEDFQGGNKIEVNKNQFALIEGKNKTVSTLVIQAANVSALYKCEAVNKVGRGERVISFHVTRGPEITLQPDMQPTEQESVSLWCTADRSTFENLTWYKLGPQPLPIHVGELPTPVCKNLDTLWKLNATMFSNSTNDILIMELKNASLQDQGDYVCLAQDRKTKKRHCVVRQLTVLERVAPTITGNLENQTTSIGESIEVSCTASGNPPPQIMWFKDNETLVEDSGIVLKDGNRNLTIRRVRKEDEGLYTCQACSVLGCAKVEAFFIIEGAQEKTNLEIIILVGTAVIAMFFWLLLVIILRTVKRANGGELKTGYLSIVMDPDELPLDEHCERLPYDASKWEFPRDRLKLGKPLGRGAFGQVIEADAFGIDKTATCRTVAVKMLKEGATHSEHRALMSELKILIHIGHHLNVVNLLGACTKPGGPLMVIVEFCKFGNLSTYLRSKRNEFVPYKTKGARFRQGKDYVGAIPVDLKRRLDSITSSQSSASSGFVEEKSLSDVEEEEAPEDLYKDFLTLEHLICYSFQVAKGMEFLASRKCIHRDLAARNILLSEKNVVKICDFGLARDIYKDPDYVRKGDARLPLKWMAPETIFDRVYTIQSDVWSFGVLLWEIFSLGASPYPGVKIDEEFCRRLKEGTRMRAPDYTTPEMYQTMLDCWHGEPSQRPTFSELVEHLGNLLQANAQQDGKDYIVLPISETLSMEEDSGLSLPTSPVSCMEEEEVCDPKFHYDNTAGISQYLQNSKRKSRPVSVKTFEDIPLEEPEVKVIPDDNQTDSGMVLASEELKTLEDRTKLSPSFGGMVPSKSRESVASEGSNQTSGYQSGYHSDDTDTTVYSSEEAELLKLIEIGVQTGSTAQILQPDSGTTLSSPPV
Procedure, shortened: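 HTRF KinEASE-TK format: enzyme and compound were preincubated 30 min at room temperature, then substrate and ATP added for 40 min, followed by cryptate antibody/streptavidin-XL665 detection for 45 min. Inhibition was normalised to DMSO and no-enzyme controls; IC50 from a four-parameter fit.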

[2] = Pharmacokinetics and tissue distribution of compounds in rats; type: in vivo; details: male, SD, rat, PO 5 mg/kg; for AUC(0-t): read-out: AUC AUClast; for Cmax: read-out: Peak concentration Cmax; for Kp: read-out: T/P Ratio of AUClast in tissue to plasma; for Tmax: read-out: Time to peak concentration Tmax
Experimental: By intragastric administration (PO) of BLU-667 (prepared according to Example 5 of WO2017/079140A1) and Compound 17 to male SD rats respectively, the plasma concentrations and the tissue concentrations of BLU-667 and Compound 17 in brains, lungs and thyroid of rats were determined to investigate the pharmacokinetic characteristics. The dosage of administration by PO was 5 mg/kg, and the solvent was 0.5% MC (methylcellulose). With administration by PO, blood samples were collected at different time points (0 h before administration, and 0.25 h, 0.5 h, 1 h, 2 h, 4 h, 6 h, 8 h, and 24 h after administration). The blood samples were anticoagulated with dipotassium edetate, and centrifuged to provide plasma samples, which were stored at −80° C. Rats were sacrificed by exsanguination from abdominal aorta at 0.5 h, 2 h, 8 h, and 24 h after PO administration. Brain, lung and thyroid were collected, washed, and homogenized with normal saline at a certain ratio, to provide tissue samples which were stored at −80° C. The plasma samples and tissue samples were processed with precipitated protein and then analyzed by LC-MS/MS. The pharmacokinetic parameters were computed using WinNonlin 6.3 software and using a non-compartmental model.

RET-V804L = RET-V804L (Homo sapiens, UniProt P07949, V804L); test: RET inhibition experiment (HTRF KinEASE-TK kit), mutant RET-V804L; type: biochemical; details: read-out: The IC50 (nM) for inhibiting RET-V804L
Sequence of RET-V804L (P07949 29-1114 V804L): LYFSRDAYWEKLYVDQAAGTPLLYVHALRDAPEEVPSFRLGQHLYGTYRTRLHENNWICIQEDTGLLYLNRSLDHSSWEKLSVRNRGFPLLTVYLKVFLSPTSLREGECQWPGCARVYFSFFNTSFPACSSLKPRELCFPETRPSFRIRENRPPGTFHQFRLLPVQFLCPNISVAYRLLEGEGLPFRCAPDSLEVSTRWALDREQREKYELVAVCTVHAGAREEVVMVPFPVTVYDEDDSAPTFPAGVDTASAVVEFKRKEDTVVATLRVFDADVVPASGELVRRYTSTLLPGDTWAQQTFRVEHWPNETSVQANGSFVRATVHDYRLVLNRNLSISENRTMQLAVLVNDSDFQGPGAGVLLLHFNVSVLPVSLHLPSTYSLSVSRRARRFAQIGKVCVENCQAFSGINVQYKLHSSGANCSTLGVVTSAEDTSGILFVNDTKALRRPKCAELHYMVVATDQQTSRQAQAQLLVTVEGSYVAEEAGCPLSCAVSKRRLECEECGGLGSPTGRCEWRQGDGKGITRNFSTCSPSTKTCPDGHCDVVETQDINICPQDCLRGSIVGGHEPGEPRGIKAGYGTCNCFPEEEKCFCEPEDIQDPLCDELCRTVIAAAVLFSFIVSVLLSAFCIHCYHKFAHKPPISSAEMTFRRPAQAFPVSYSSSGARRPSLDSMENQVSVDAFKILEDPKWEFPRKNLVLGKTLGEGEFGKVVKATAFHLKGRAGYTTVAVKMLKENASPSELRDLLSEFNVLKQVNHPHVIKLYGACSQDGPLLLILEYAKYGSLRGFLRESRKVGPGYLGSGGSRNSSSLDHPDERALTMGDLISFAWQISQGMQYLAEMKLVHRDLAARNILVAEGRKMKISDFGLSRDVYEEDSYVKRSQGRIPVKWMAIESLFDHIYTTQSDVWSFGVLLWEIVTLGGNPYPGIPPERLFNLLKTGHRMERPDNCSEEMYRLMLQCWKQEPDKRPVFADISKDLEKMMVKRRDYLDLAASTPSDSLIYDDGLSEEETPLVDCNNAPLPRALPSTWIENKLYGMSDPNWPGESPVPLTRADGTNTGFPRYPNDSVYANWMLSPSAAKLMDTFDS
Experimental: Experimental method: […] After incubation at room temperature for 40 min, TK antibody-cryptate and streptavidin-XL665 were added, and the test was performed after incubation at room temperature for 45 min. With the solvent group (DMSO) as the negative control and the buffer group (without RET enzyme) as the blank control, the relative inhibitory activity percentages (i.e., inhibition rates) of different concentrations of the compounds were computed as per the following formula: […] The relative inhibitory activity percentages of different concentrations of the compounds were plotted with respect to the compound concentrations, and the curve was fitted according to a four-parameter model to compute the IC50 value as per the following formula: y=min+(max-min)/(1+(x/IC50)^(-Hillslope)) where y is the relative inhibitory activity percentage, max is the maximum value of the fitted curve, min is the minimum value of the fitted curve, x is the logarithmic concentration of the compound, and Hillslope is the slope of the curve.

Cc1cc(Nc2cc(C)[nH]n2)nc(-c2ccc(N3CC4CC(C3)N4Cc3ccc(-n4cc(F)cn4)nc3)nc2)n1 [Compound 17, 2-(6-(6-((6-(4-fluoro-1H-pyrazol-1-yl)pyridin-3-yl)methyl)-3,6-diazabicyclo[3.1.1]heptan-3-yl)pyridin-3-yl)-6-methyl-N-(5-methyl-1H-pyrazol-3-yl)pyrimidin-4-amine]
Relative tumor growth rate T/C [1]: 17.44%
Tumor growth inhibition rate TGI [1]: 131.36%
IC50 (VEGFR2): 0.063 ± 0.0118 µM
AUC(0-t) ([2]; brain): 1010 ng·h/mL
Cmax ([2]; brain): 153 ng/mL
Kp ([2]; brain): 0.15
Tmax ([2]; brain): 2 h
AUC(0-t) ([2]; lung): 79600 ng·h/mL
Cmax ([2]; lung): 9620 ng/mL
Kp ([2]; lung): 11.7
Tmax ([2]; lung): 2 h
AUC(0-t) ([2]; plasma): 6790 ng·h/mL
Cmax ([2]; plasma): 772 ng/mL
Kp ([2]; plasma): 1
Tmax ([2]; plasma): 2 h
AUC(0-t) ([2]; thyroid): 11400 ng·h/mL
Cmax ([2]; thyroid): 1870 ng/mL
Kp ([2]; thyroid): 1.68
Tmax ([2]; thyroid): 8.49 h
IC50 (RET-V804L): 6.54 ± 2.43 nM
